In publication PMC11678869, “Functional Role of Odorant-Binding Proteins in Response to Sex Pheromone Component Z8-14:Ac in Grapholita molesta (Busck)” (Insects, 2024):

Experiments:
OFM males [1] = assay: Field trapping with delta traps, peach orchard; type: in vivo, Grapholita molesta; details: for Inhibition Rate of OFM Males: vs 100:4:0
Method: (§1) To determine the inhibitory effects on OFM male adults and the impact on the trapping effects of PFM male adults, varying amounts of Z8-14:Ac (0, 5, 10, 25, 50, 75, 100, 125, 150 μg) or Z10-14:Ac (0, 25, 50, 100, 150, 250, 350, 450, and 550 μg) were added to rubber septa loaded with a constant dosage of the main pheromone (500 μg of Z8-12:Ac and 20 μg of E8-12:Ac) of the PFM. Trapping experiments of Z8-14:Ac were carried out in peach and pear orchards in Yan’an and Xinjiang (China), respectively. Trapping tests of Z10-14:Ac were performed in pear orchards in Xinjiang (China). Each orchard had nine plots, with three plots in one field. Each plot consisted of a linear arrangement of traps loaded with a constant dosage of the main pheromones and different percentages of the secondary pheromone Z8-14:Ac or Z10-14:Ac of the PFM. Plots in the same field were placed 30 m apart, and fields were ≥1 km apart. The traps were hung 1.4 m from the ground on a suspension bracket between two rows of peach or pear trees from 10 June to 25 July 2021 in Xinjiang and from 15 June to 30 July 2021 in Yan’an. The positions of the traps within the plot were randomly arranged. Every 5 days, counts were taken, and the traps were rotated to the adjacent position to avoid any potential position effects. The septa loaded with sex pheromone components were replaced with new ones after every 15 days of suspension. The data were analyzed using a one-way ANOVA, and the differences in the average trapping of OFM and PFM males using sex attractants containing different amounts of Z8-14:Ac or Z10-14:Ac were further analyzed using Tukey’s HSD test, both of which were performed using SPSS 23.0.

PFM males = assay: Field trapping with delta traps, peach orchard; type: in vivo, Grapholita funebrana
Method: as §1

OFM males [2] = assay: Field trapping with delta traps, pear orchard; type: in vivo, Grapholita molesta; details: for Inhibition Rate of OFM Males: vs 100:4:0
Method: as §1

OFM male antennae = assay: Electroantennogram (EAG) analysis; parameters: species or system Grapholita molesta
Method: Electroantennogram (EAG) equipment (Syntech, Hilversum, The Netherlands) was used to record the antennal responses of the OFM and PFM adults to Z8-12:Ac, E8-12:Ac, Z8-12:OH, Z8-14:Ac, and Z10-14:Ac. These sex pheromone compounds were diluted with liquid paraffin to prepare a stimulus solution of 100 μg/μL, which was subsequently diluted to 10 and 1 μg/μL. Antenna from 3-day-old OFM and 2- to 4-day-old PFM virgin males were excised at its base, with the distal part of the terminal segment being removed. Then, the treated antenna was attached to electrode holders with SpectraR360 conducting gel. A stimulus controller (model CS-55, Syntegon Technology, Waiblingen, Germany) continuously supplied a humidified air stream at a rate of 500 mL/min. Then, 20 μL of each stimulus solution was adsorbed onto a twice-folded filter paper strip (0.5 cm × 4 cm) placed on the wide section of a l mL pipette tip, which served as an odorant cartridge. Vapor stimuli were delivered by an air compressor into the constant air stream described above, flowing in a copper delivery tube (i.d. 8 mm) with the outlet positioned approximately 1 cm from the antenna. The EAG amplitude tests of the OFM and PFM males’ responses to sex pheromones started with solvent control stimuli (20 μL of liquid paraffin), followed by stimulation with 20, 200, and 2000 μg doses (20 μL of 1.0, 10.0, and 100.0 μg/μL of liquid paraffin solutions, respectively) of stimulus in sequence. The solvent control was performed at the end of the run. To control for variations among antennae, each sample was tested on 10 antennae of different males. The EAG signals and data were analyzed using EAG 2000 software (Syntech, Hilversum, The Netherlands). The corrected EAG amplitude value = absolute EAG amplitude value − (EAGck1 + EAGck2)/2, where EAGck1 and EAGck2 represent the absolute EAG amplitude values of the solvent control before and after measuring each stimulus, respectively. The relative EAG response of the OFM and PFM males to the same doses of sex pheromones were subjected to an analysis of independent sample t-test (p = 0.05) using SPSS version 23.0 (IBM).

[3] = peach orchard, Z8-12:Ac/E8-12:Ac/Z8-14:Ac 500/20/5 μg (100:4:1)
[4] = peach orchard, Z8-12:Ac/E8-12:Ac/Z8-14:Ac 500/20/10 μg (100:4:2)
[5] = peach orchard, Z8-12:Ac/E8-12:Ac/Z8-14:Ac 500/20/25 μg (100:4:5)
[6] = peach orchard, Z8-12:Ac/E8-12:Ac/Z8-14:Ac 500/20/50 μg (100:4:10)
[7] = peach orchard, Z8-12:Ac/E8-12:Ac/Z8-14:Ac 500/20/75 μg (100:4:15)
[8] = peach orchard, Z8-12:Ac/E8-12:Ac/Z8-14:Ac 500/20/100 μg (100:4:20)
[9] = peach orchard, Z8-12:Ac/E8-12:Ac/Z8-14:Ac 500/20/125 μg (100:4:25)
[10] = peach orchard, Z8-12:Ac/E8-12:Ac/Z8-14:Ac 500/20/150 μg (100:4:30)
[11] = pear orchard, Z8-12:Ac/E8-12:Ac/Z8-14:Ac 500/20/5 μg (100:4:1)
[12] = pear orchard, Z8-12:Ac/E8-12:Ac/Z8-14:Ac 500/20/10 μg (100:4:2)
[13] = pear orchard, Z8-12:Ac/E8-12:Ac/Z8-14:Ac 500/20/25 μg (100:4:5)
[14] = pear orchard, Z8-12:Ac/E8-12:Ac/Z8-14:Ac 500/20/50 μg (100:4:10)
[15] = pear orchard, Z8-12:Ac/E8-12:Ac/Z8-14:Ac 500/20/75 μg (100:4:15)
[16] = pear orchard, Z8-12:Ac/E8-12:Ac/Z8-14:Ac 500/20/100 μg (100:4:20)
[17] = pear orchard, Z8-12:Ac/E8-12:Ac/Z8-14:Ac 500/20/125 μg (100:4:25)
[18] = pear orchard, Z8-12:Ac/E8-12:Ac/Z8-14:Ac 500/20/150 μg (100:4:30)

CCCCC/C=C\CCCCCCCOC(C)=O [Z8-14:Ac, (Z)-8-tetradecenyl acetate]
Total OFM Males/Trap (OFM males [1]; [3]): 46.08±3.25 b Males/Trap
Inhibition Rate of OFM Males (OFM males [1]; [3]): 58.81%
Total OFM Males/Trap (OFM males [1]; [4]): 40.89±2.35 b Males/Trap
Inhibition Rate of OFM Males (OFM males [1]; [4]): 63.45%
Total OFM Males/Trap (OFM males [1]; [5]): 14.82±1.47 c Males/Trap
Inhibition Rate of OFM Males (OFM males [1]; [5]): 86.75%
Total OFM Males/Trap (OFM males [1]; [6]): 9.04±1.08 c Males/Trap
Inhibition Rate of OFM Males (OFM males [1]; [6]): 91.92%
Total OFM Males/Trap (OFM males [1]; [7]): 9.55±1.09 c Males/Trap
Inhibition Rate of OFM Males (OFM males [1]; [7]): 91.46%
Total OFM Males/Trap (OFM males [1]; [8]): 9.67±1.52 c Males/Trap
Inhibition Rate of OFM Males (OFM males [1]; [8]): 91.36%
Total OFM Males/Trap (OFM males [1]; [9]): 6.86±0.24 c Males/Trap
Inhibition Rate of OFM Males (OFM males [1]; [9]): 93.87%
Total OFM Males/Trap (OFM males [1]; [10]): 7.96±1.19 c Males/Trap
Inhibition Rate of OFM Males (OFM males [1]; [10]): 92.88%
reduction of the number of OFM males caught (OFM males [1]; peach orchard, adding 5–30% of Z8-14:Ac to Z8-12:Ac and E8-12:Ac): more than 86%
reduction of the capture of OFM males (OFM males [1]; peach orchards, adding 1–2% of Z8-14:Ac to Z8-12:Ac and E8-12:Ac (100:4)): 58.81–63.45%
Total PFM Males/Trap (PFM males; Z8-12:Ac/E8-12:Ac/Z8-14:Ac 500/20/5 μg (100:4:1)): 387.73 ± 18.31 a Males/Trap
Total PFM Males/Trap (PFM males; Z8-12:Ac/E8-12:Ac/Z8-14:Ac 500/20/10 μg (100:4:2)): 287.22 ± 7.96 a Males/Trap
Total PFM Males/Trap (PFM males; Z8-12:Ac/E8-12:Ac/Z8-14:Ac 500/20/25 μg (100:4:5)): 314.53 ± 26.14 a Males/Trap
Total PFM Males/Trap (PFM males; Z8-12:Ac/E8-12:Ac/Z8-14:Ac 500/20/50 μg (100:4:10)): 331.58 ± 17.46 a Males/Trap
Total PFM Males/Trap (PFM males; Z8-12:Ac/E8-12:Ac/Z8-14:Ac 500/20/75 μg (100:4:15)): 297.81 ± 4.75 a Males/Trap
Total PFM Males/Trap (PFM males; Z8-12:Ac/E8-12:Ac/Z8-14:Ac 500/20/100 μg (100:4:20)): 285.62 ± 6.55 a Males/Trap
Total PFM Males/Trap (PFM males; Z8-12:Ac/E8-12:Ac/Z8-14:Ac 500/20/125 μg (100:4:25)): 352.89 ± 32.42 a Males/Trap
Total PFM Males/Trap (PFM males; Z8-12:Ac/E8-12:Ac/Z8-14:Ac 500/20/150 μg (100:4:30)): 348.30 ± 22.77 a Males/Trap
effect on the number of PFM males (PFM males; adding 1–30% of Z8-14:Ac to the PFM sex attractants): neither significantly increased nor inhibited
maximum reduction of the capture of OFM males (OFM males [2]; field trials, varying ratios of Z8-14:Ac (1% to 30%) added to Z8-12:Ac and E8-12:Ac): up to 96.54%
Total OFM Males/Trap (OFM males [2]; [11]): 59.24 ± 10.14 b Males/Trap
Inhibition Rate of OFM Males (OFM males [2]; [11]): 65.04%
Total OFM Males/Trap (OFM males [2]; [12]): 61.31 ± 7.21 b Males/Trap
Inhibition Rate of OFM Males (OFM males [2]; [12]): 63.82%
Total OFM Males/Trap (OFM males [2]; [13]): 21.36 ± 6.22 c Males/Trap
Inhibition Rate of OFM Males (OFM males [2]; [13]): 87.40%
Total OFM Males/Trap (OFM males [2]; [14]): 12.05 ± 0.91 c Males/Trap
Inhibition Rate of OFM Males (OFM males [2]; [14]): 92.89%
Total OFM Males/Trap (OFM males [2]; [15]): 8.95 ± 2.69 c Males/Trap
Inhibition Rate of OFM Males (OFM males [2]; [15]): 94.72%
Total OFM Males/Trap (OFM males [2]; [16]): 12.74 ± 6.57 c Males/Trap
Inhibition Rate of OFM Males (OFM males [2]; [16]): 92.48%
Total OFM Males/Trap (OFM males [2]; [17]): 5.86 ± 1.50 c Males/Trap
Inhibition Rate of OFM Males (OFM males [2]; [17]): 96.54%
Total OFM Males/Trap (OFM males [2]; [18]): 10.33 ± 2.98 c Males/Trap
Inhibition Rate of OFM Males (OFM males [2]; [18]): 93.90%
reduction of the number of OFM males caught (OFM males [2]; pear orchard, adding 5–30% of Z8-14:Ac to Z8-12:Ac and E8-12:Ac): more than 86%
reduction of the capture of OFM males (OFM males [2]; pear orchards, adding 1–2% of Z8-14:Ac to Z8-12:Ac and E8-12:Ac (100:4)): 63.82–65.04%
EAG values of OFM males compared with PFM males (OFM male antennae; 20, 200 and 2000 μg): significantly higher than those of the PFM males
EAG response of OFM males (OFM male antennae; 20, 200 and 2000 μg doses): moderate EAG response
